Among the data in ChEMBL document CHEMBL5291721, “A preclinical secondary pharmacology resource illuminates target-adverse drug reaction associations of marketed drugs” (Nat Commun, 2023) are AC50 values, retold here.

The AC50 is the concentration at which the activity in the assay is half-maximal.

Experiment [1] addresses T1, Gastrin/cholecystokinin type B receptor (Homo sapiens, UniProt P32239).
T1 sequence (P32239 whole entry): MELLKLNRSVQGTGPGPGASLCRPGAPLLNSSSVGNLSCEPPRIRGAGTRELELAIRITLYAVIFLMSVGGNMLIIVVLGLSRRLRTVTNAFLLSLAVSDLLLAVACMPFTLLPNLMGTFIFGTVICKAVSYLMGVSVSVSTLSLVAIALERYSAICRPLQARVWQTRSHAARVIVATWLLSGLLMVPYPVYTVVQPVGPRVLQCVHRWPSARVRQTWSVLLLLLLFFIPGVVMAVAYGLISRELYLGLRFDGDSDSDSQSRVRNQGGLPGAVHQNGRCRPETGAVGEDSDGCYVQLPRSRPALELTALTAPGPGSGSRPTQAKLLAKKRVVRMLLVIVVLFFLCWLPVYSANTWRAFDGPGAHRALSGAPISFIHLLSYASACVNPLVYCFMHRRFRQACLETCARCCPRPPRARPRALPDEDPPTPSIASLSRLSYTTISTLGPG

Experiment [2] deals with T2, Muscarinic acetylcholine receptor M2 (Homo sapiens, UniProt P08172).
T2 sequence (P08172 whole entry): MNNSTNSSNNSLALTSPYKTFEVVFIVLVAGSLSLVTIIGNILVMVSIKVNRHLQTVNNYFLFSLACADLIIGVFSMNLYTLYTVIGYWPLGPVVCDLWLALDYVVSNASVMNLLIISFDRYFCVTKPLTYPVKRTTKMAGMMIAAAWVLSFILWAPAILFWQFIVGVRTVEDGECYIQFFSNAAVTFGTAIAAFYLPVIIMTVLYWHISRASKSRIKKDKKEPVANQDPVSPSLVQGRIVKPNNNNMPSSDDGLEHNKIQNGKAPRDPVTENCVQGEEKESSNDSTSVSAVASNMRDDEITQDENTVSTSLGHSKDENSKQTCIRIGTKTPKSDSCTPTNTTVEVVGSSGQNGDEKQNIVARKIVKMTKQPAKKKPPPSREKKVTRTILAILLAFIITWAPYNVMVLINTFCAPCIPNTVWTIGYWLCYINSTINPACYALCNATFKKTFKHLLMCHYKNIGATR
It counts as functional, cell-based.

The target in experiment [3] is T3, 5-hydroxytryptamine receptor 3A (Homo sapiens, UniProt P46098).
T3 sequence (P46098 whole entry): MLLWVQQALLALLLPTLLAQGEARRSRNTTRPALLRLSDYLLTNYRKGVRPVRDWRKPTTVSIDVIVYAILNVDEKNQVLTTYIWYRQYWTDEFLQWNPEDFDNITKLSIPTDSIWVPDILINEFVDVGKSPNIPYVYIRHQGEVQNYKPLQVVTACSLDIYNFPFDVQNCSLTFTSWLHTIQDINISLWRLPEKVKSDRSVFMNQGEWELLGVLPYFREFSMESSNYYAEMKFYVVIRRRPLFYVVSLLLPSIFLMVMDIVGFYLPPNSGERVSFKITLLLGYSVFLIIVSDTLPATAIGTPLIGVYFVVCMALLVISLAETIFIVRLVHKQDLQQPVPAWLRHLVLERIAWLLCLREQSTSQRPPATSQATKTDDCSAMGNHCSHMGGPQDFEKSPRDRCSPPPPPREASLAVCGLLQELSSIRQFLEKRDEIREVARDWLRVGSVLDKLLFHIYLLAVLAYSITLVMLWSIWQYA
It is filed as functional.

Another experiment deals with Motilin receptor (Homo sapiens, UniProt O43193).
Sequence of Motilin receptor (O43193 whole entry): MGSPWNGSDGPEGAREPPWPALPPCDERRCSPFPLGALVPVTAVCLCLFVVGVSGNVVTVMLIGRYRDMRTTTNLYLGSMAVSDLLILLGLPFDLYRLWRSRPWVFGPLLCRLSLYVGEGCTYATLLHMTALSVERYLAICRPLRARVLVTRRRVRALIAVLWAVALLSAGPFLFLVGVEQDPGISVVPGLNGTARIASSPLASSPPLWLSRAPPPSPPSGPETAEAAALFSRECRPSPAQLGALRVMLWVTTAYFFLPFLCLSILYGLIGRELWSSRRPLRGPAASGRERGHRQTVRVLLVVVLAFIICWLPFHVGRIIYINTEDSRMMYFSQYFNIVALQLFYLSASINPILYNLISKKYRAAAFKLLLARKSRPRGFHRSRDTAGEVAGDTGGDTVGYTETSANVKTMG
The target of experiment [4] is Kappa-type opioid receptor (Homo sapiens, UniProt P41145).
Sequence of Kappa-type opioid receptor (P41145 whole entry): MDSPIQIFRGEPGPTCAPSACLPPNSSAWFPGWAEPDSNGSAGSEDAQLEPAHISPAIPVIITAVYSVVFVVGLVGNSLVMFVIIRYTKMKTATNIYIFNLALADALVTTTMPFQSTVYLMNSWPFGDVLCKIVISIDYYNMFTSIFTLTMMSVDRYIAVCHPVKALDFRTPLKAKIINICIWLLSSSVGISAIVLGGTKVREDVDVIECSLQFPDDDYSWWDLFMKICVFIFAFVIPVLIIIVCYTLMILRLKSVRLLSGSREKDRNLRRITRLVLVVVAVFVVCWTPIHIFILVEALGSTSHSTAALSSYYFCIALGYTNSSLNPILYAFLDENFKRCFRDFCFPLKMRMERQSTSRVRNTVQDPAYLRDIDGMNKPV
The target in experiment [5] is T4, Alpha-1A adrenergic receptor (Homo sapiens, UniProt P35348).
T4 sequence (P35348 whole entry): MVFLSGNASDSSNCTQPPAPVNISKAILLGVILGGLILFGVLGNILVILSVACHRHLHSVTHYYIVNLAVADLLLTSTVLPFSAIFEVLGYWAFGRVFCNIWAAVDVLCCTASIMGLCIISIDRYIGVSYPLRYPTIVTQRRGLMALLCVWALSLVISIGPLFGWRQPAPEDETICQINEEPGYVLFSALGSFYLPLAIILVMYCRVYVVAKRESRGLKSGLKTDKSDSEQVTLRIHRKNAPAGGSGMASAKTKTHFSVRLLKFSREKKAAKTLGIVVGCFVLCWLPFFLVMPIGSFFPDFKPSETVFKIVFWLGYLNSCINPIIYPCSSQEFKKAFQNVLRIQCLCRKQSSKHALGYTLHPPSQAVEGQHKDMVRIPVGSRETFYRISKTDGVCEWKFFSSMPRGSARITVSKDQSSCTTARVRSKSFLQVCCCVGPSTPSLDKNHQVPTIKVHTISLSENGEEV
It counts as functional, cell-based.

The next experiment concerns the target T5, Glucocorticoid receptor (Homo sapiens, UniProt P04150).
T5 sequence (P04150 whole entry): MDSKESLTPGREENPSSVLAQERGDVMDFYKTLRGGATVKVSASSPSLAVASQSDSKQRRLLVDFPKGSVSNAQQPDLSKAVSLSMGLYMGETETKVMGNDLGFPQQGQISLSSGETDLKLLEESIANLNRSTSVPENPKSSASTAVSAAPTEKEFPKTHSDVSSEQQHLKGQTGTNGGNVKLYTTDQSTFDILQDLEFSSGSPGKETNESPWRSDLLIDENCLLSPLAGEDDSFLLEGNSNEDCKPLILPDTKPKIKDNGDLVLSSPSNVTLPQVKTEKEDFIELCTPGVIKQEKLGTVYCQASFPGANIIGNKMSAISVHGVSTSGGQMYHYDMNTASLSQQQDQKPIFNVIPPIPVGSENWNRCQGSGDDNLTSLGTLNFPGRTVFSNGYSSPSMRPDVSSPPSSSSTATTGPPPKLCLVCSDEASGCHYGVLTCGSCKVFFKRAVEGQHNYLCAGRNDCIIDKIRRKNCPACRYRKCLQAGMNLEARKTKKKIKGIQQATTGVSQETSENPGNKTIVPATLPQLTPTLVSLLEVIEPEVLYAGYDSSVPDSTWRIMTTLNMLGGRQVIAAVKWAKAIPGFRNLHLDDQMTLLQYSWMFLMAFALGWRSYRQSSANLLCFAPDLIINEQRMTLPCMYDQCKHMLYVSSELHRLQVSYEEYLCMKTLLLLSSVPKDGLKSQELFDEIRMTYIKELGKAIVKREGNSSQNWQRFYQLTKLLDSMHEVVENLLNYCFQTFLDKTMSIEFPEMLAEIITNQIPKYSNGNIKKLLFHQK

Molecules are shown by their SMILES.
Also: assay procedure not described here.

Regarding `CC[C@@H](C(N)=O)N1CCCC1=O`, the AC50 (in experiment [1]; in experiment [2]; in experiment [3]; at Motilin receptor; in experiment [4]; in experiment [5]) was over 30 µM throughout.

Turning to `CCC(CC)(CC(=O)Nc1cccc(/C=C/c2nc(C3CCC3)cs2)c1)C(=O)O`, the AC50 (in experiment [1]; at Motilin receptor) was over 30 µM each time.

`CCCC1O[C@@H]2C[C@H]3[C@@H]4CCC5=CC(=O)C=C[C@]5(C)[C@H]4[C@@H](O)C[C@]3(C)[C@]2(C(=O)CO)O1` (some centres undefined) [BUDESONIDE]: the AC50 in experiment [2] is over 10 µM; in experiment [3], over 30 µM; on Motilin receptor, over 10 µM; in experiment [4], over 10 µM.

As to `C=CCN1C[C@H](C(=O)N(CCCN(C)C)C(=O)NCC)C[C@@H]2c3cccc4[nH]cc(c34)C[C@H]21` [CABERGOLINE], the AC50 was over 30 µM in experiment [2]; over 30 µM in experiment [3]; over 10 µM at Motilin receptor; over 10 µM at Glucocorticoid receptor; over 10 µM in experiment [4].

For the compound `CN1CCN(C2=Nc3ccccc3Sc3ccc(Cl)cc32)CC1` [CLOTHIAPINE], the concentration at half-maximal activity (AC50) in experiment [2] was over 30 µM; in experiment [3], 9 µM; in experiment [4] it was over 30 µM; in experiment [5], 1.2 µM.

Turning to `CN(C)CCC=C1c2ccccc2C=Cc2ccccc21` [CYCLOBENZAPRINE], the AC50 is over 30 µM in experiment [1]; over 30 µM in experiment [3]; over 10 µM at Motilin receptor; over 30 µM at Glucocorticoid receptor; 0.47 µM in experiment [5].

For `CCOc1ccc(Cc2cc([C@@H]3O[C@H](CO)[C@@H](O)[C@H](O)[C@H]3O)ccc2Cl)cc1` [DAPAGLIFLOZIN], the AC50 in experiment [1] was over 30 µM; in experiment [3] it was over 30 µM; at Motilin receptor it was over 10 µM; on Glucocorticoid receptor, over 30 µM; in experiment [4], over 10 µM.

In the case of `CN(C)CC/C=C1\c2ccccc2CSc2ccccc21` [DOTHIEPIN], the AC50 was over 30 µM in experiment [1]; over 30 µM in experiment [2]; over 30 µM in experiment [3]; over 30 µM at Motilin receptor; over 30 µM on Glucocorticoid receptor; 0.87 µM in experiment [5].

Take `CC[C@H]1CN2CCc3cc(OC)c(OC)cc3[C@@H]2C[C@@H]1C[C@H]1NCCc2cc(OC)c(OC)cc21` [EMETINE]: the AC50 (in experiment [1]; in experiment [2]; in experiment [3]; at Motilin receptor; at Glucocorticoid receptor; in experiment [4]) was over 30 µM in each case. Moreover, the AC50 in experiment [5] is over 30 µM.

With `COc1ccc(C(=O)Nc2ccccc2CCC2CCCCN2C)cc1` (centres undefined) [ENCAINIDE], the AC50 in experiment [1] is over 30 µM; in experiment [2] it was over 10 µM; in experiment [3], over 30 µM; on Motilin receptor, over 10 µM; on Glucocorticoid receptor it was over 30 µM; in experiment [4], 3.6 µM. This compound also yielded an AC50 in experiment [5] of over 30 µM.

For `O=[N+]([O-])O[C@@H]1CO[C@H]2[C@@H]1OC[C@@H]2O` [ISOSORBIDE MONONITRATE], the AC50 was over 30 µM in experiment [1]; over 10 µM in experiment [2]; over 30 µM in experiment [3]; over 10 µM at Motilin receptor; over 30 µM on Glucocorticoid receptor; over 10 µM in experiment [4].

Turning to `Cc1cc(C)c(NC(=O)CN(CC(=O)O)CC(=O)O)c(C)c1Br` [MEBROFENIN], the concentration at half-maximal activity (AC50) in experiment [2], in experiment [3], in experiment [4] and in experiment [5] was over 30 µM in each case.

With `COc1ccccc1N1CCN(CC(O)COc2cccc3ccccc23)CC1` (centres undefined) [NAFTOPIDIL], the AC50 in experiment [2] is over 30 µM; in experiment [3], over 30 µM; on Glucocorticoid receptor, 8.9 µM; in experiment [4] it was 2.2 µM; in experiment [5], 0.46 µM.

Consider `COc1cc2nc(N3CCN(C(=O)c4ccco4)CC3)nc(N)c2cc1OC` [PRAZOSIN], for which the AC50 in experiment [1] is over 30 µM; in experiment [2], over 10 µM; in experiment [3] it was over 10 µM; at Motilin receptor, over 10 µM; on Glucocorticoid receptor, over 30 µM; in experiment [4], 4.94 µM.

Consider `O=[N+]([O-])c1cn2c(n1)OC[C@@H](OCc1ccc(OC(F)(F)F)cc1)C2` [PRETOMANID], for which the AC50 in experiment [1] was over 30 µM; in experiment [3], over 10 µM; on Motilin receptor, over 10 µM; in experiment [4], over 10 µM.

Turning to `Cc1oc(=O)oc1CN1CCN(c2cc3c(cc2F)c(=O)c(C(=O)O)c2n3C(C)S2)CC1` (centres undefined) [PRULIFLOXACIN], the half-maximal activity concentration (AC50) in experiment [2], in experiment [3], in experiment [4] and in experiment [5] was over 30 µM throughout.

Regarding `CCCCCNC(=N)N/N=C/c1c[nH]c2ccc(OC)cc12` [TEGASEROD], the concentration at half-maximal activity (AC50) in experiment [1] is over 30 µM; in experiment [2], over 30 µM; in experiment [3], over 30 µM; at Motilin receptor it was 16.3 µM; on Glucocorticoid receptor, over 30 µM; in experiment [4] it was 4.9 µM. In addition, in experiment [5], the activity was half-maximal at 2.1 µM (AC50).

As for `COC1=C(OC)C(=O)C(C/C=C(\C)CC/C=C(\C)CC/C=C(\C)CC/C=C(\C)CC/C=C(\C)CC/C=C(\C)CC/C=C(\C)CC/C=C(\C)CC/C=C(\C)CCC=C(C)C)=C(C)C1=O` [UBIDECARENONE], the AC50 in experiment [2], in experiment [3], in experiment [4] and in experiment [5] was over 30 µM each time.

For the compound `CCOc1ccccc1OCC1CNCCO1` (centres undefined) [VILOXAZINE], the AC50 in experiment [1] is over 30 µM; in experiment [2], over 10 µM; in experiment [3], over 10 µM; on Motilin receptor, over 10 µM; on Glucocorticoid receptor it was over 30 µM; in experiment [4] it was over 10 µM. Further, the half-maximal activity concentration (AC50) in experiment [5] is over 30 µM.

For `CN(C)CCc1c[nH]c2ccc(C[C@H]3COC(=O)N3)cc12` [ZOLMITRIPTAN], the AC50 (in experiment [1]; in experiment [2]; in experiment [3]; on Motilin receptor; on Glucocorticoid receptor; in experiment [4]) was over 30 µM throughout.
